# Laboratory results: patent publication US6316423A, “Method of treating ischemic, hypoxic and anoxic brain damage” (priority 1999, dated 2001)
# Experiments:
# [1] = target: T1, Rat A1 adenosine receptor (Rattus norvegicus, UniProt P25099); test: Affinity for A1 adenosine receptors isolated from rats; assay type: binding
# T1 construct: A1 adenosine receptors isolated from rats; from tissue
# T1 sequence (P25099 1-326): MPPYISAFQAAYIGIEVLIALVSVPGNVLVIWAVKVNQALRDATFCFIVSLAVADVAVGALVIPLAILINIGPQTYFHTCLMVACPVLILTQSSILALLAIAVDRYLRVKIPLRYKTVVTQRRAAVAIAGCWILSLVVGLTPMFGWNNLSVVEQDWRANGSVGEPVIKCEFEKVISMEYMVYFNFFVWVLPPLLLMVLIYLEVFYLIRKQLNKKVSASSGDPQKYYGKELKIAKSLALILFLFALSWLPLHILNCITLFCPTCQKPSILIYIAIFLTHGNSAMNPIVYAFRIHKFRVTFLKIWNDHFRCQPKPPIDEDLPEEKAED
# Source text: These methods are known in the art. For example, the synthesis of these compounds can be guided by U.S. Pat. No. 5,248,770 or by Jacobson et al., Journal of Medicinal Chemistry, 28, 1341-1346 (1985).
# [2] = test system: adenosine A1 receptors; conditions: cited from earlier work
Structure (SMILES),Ki [1] [nM],antagonistic properties at adenosine A1 receptors [2]
NC(=O)N1c2ccccc2C=Cc2ccccc21 [carbamazepine],,marginal
Cc1ccc(C(=O)NCCCCNC(=O)Cc2ccc(NC(=O)Cc3ccc(Nc4ncnc5c4ncn5[C@@H]4O[C@H](CO)[C@@H](O)[C@H]4O)cc3)cc2)cc1 [compound 6],7.95 ± 0.76,
Cc1ccc(C(=O)NCCNC(=O)Cc2ccc(NC(=O)Cc3ccc(Nc4ncnc5c4ncn5[C@@H]4O[C@H](CO)[C@@H](O)[C@H]4O)cc3)cc2)cc1 [compound 4],11.9 ± 2,

# Continued, in another order:
Ki [1] [nM],Structure (SMILES),antagonistic properties at adenosine A1 receptors [2]
5.67 ± 0.055,Cc1ccc(C(=O)NCCCNC(=O)Cc2ccc(NC(=O)Cc3ccc(Nc4ncnc5c4ncn5[C@@H]4O[C@H](CO)[C@@H](O)[C@H]4O)cc3)cc2)cc1 [compound 5],
1.91 ± 0.17,NCCCCNC(=O)Cc1ccc(NC(=O)Cc2ccc(Nc3ncnc4c3ncn4[C@@H]3O[C@H](CO)[C@@H](O)[C@H]3O)cc2)cc1,
1.96 ± 0.06,NCCCNC(=O)Cc1ccc(NC(=O)Cc2ccc(Nc3ncnc4c3ncn4[C@@H]3O[C@H](CO)[C@@H](O)[C@H]3O)cc2)cc1,
